From patent US11000568B2, “Means and methods for treating copper-related diseases” (HELMHOLTZ ZENTRUM MÜNCHEN—DEUTSCHES FORSCHUNGSZENTRUM FÜR …, priority 2015, dated 2021)
“Also recorded” adds a separate entry of the source. Counter-ions that a name gives are not always drawn.

How the values were obtained:
LEC rats = conditions: 100 mg/kg bw/d via drinking water, long-term; cited from earlier work
LPP−/− livers = test: Two hour LPP−/− liver perfusion; parameters: species or system rat; conditions: MB 0.7 μM, TTM 0.8 μM, D-PA 2.2 μM, TETA 1.8 μM
Description: LPP−/− livers (animal age 79-83 days) were perfused in a single pass manner with Krebs-Ringer bicarbonate solution containing 5 mM glucose (Beuers et al., J Biol Chem 278, 17810-17818 (2003)). The medium was gassed with 95% O2/5% CO2 and kept at 37° C. Rat livers were perfused via the portal vein (Beuers et al., log. cit.), the right lateral liver lobe was ligated and its copper content served as pre-perfusion control (Beuers et al., Hepatology 33, 1206-1216 (2001)). After cannulation of the bile duct a 20 min sample of bile was collected before the copper chelators were continuously added to the perfusion medium. Bile and outflow perfusate were collected in 10 min intervals as described elsewhere (Beuers et al., log. cit.). D-PA*HCl (20 mg/108 μmol), TETA*2HCl (20 mg/91 μmol), TTM*2NH4 (10 mg/38 μmol) and MB (40 mg/35 μmol) were each dissolved in 50 ml 0.9% NaCl, and continuously added to the perfusion medium via a perfusion pump (Perfusor, Braun, Melsungen) within 2 hours. The molar ratios of the chelators applied was MB 1:D-PA 3.1:TETA 2.6:TTM 1.1. LDH in the outflow perfusate was measured every ten minutes as described (Beuers et al., log. cit.). Control perfusions were done with Krebs-Ringer bicarbonate solution only.

LPP−/− rats = test: Short-term in vivo treatment of LPP−/− rats; parameters: species or system rat; conditions: MB i.p. 3 or 5 days; D-PA or TETA 4 days
Description: LPP rats were treated with MB either by daily i.p. injections for 3 or 5 consecutive days, or twice daily i.p. injections for 8 consecutive days at a dose of 150 mg/kg bw or 4 days via the drinking water with D-PA at a dose of 100 mg/kg bw/d or TETA at 480 mg/kg bw/d, respectively (Togashi et al., Hepatology 15, 82-87 (1992)). Based on a mean copper content of 250 μg/g w.w. in Atp7b−/− rat livers at the age of treatment start (Zischka et al., log. cit.), a LPP−/− rat liver of 8 g w.w. contains around 31.5 μmol copper. Single MB doses were chosen equimolar to this copper amount. […] Assuming 40 ml water intake per day for a rat weighing 250 g this translates to a dose of 480 mg/kg bw/d. With respect to the mean liver copper content in LPP−/− rats aged 85 days, the molar ratios of the chelators applied was MB 1:D-PA 4.3:TETA 17.4, respectively. For the intravenous MB application (150 mg/kg bw), catheters connected to a PinPort™ (Instech Laboratories, Inc., USA) were inserted in the femoral vein of the rat, fixed with non-absorbable sutures and subcutaneously tunneled and exteriorized through a skin incision made between the shoulders.
Formalin-fixed, paraffin-embedded liver samples were cut into 4 μm-thick sections and either stained with hematoxylin and eosin for standard analyses or with Masson trichrome for analysis of fibrotic tissue. AST activity and bilirubin concentration in animal plasma or serum were measured with a Reflotron system (Roche).
Copper in liver homogenates, cell lysates and mitochondrial preparations were analyzed by ICP-OES (Ciros Vision, SPECTRO Analytical Instruments GmbH) after wet ashing of samples with 65% nitric acid (Zischka et al., log. cit.).
The efficiency of a short-term MB treatment schedule was assessed in LPP−/− rats at the age of liver disease onset (85-90 days). Animals received MB (i.p.) either for 3 or 5 days or the clinically used copper chelators D-PA or TETA, which were orally administered for 4-days.

LPP−/− mitochondria = test: Chelator treatment of freshly isolated copper burdened LPP−/− mitochondria (copper extraction); parameters: species or system rat; conditions: 30 min incubation

Compound | mitochondrial copper (LPP−/− rats) | serum AST levels (LPP−/− rats) | whole liver copper (LPP−/− rats) | other results
CC(C)(S)[C@@H](N)C(=O)O.Cl [D-PA, D-penicillamine*HCl, reference compound] | No copper reduction | unable to avoid the increase of serum AST levels | No copper reduction | onset of hepatitis (LEC rats): successfully prevent the onset of hepatitis; copper released into bile (LPP−/− livers): did not provoke any detectable release of copper into the bile; also recorded: did not bring copper into bile
NCCNCCNCCN [TETA, trientine*2 HCl, reference compound] | No copper reduction | unable to avoid the increase of serum AST levels | No copper reduction | copper released into bile (LPP−/− livers; HCl): did not provoke any detectable release of copper into the bile; also recorded: did not bring copper into bile
CC(NC(=O)C(C)NC(=S)C1N=C(C(NC(=O)C(CO)NC(=O)C(C)NC(=S)C2N=C(C(=O)CCCNC(=N)N)NC2=O)C(C)OS(=O)(=O)O)OC1=O)C(=O)O (centres unmarked) [mb-SB2] | – | – | – | copper depletion from LPP−/− mitochondria (LPP−/− mitochondria; 1 mM, mitochondria from three LPP−/− rats, vs buffer treated control): depletes copper at least as effective as another MB peptide mb-OB3b; also recorded: decreased at least as effective as the MB peptide mb-OB3b
tetrathiomolybdate*2 NH4 [TTM] | – | – | – | copper associated with LPP−/− mitochondria (LPP−/− mitochondria; 2 mM each): rapidly decreased copper
